Measured values: article PMC12332667, “Role of Structural Modifications in Peptidomimetic Compounds as Potential Antimicrobial Agents against Staphylococcus aureus and Streptococcus pyogenes: Balancing Bioavailability, Safety, and Antimicrobial Activity” (ACS Omega, 2025)
≈ marks a conversion by molar mass, not a printed value.

Tests used:
P. vulgaris ATCC 6896 = assay: MIC/MBC broth microdilution, P. vulgaris; format: cell-based, Proteus vulgaris
Method: (§1) S. aureus (ATCC 29213),S. pyogenes (ATCC 19615),Streptococcus agalactiae (ATCC 27956),Escherichia coli (ATCC 25922),Proteus vulgaris (ATCC 6896),K. pneumoniae (ATCC 700603) andP. aeruginosa (ATCC 10145) reference strains, as well asStaphylococcus cohnii, Enterococcus faecalis, Staphylococcus schleiferi, Staphylococcus intermedius and Streptococcus mutans clinical isolates, were used to test the antibacterial activity of the peptidomimetics. Bacteria were aerobically cultured for 18 h at 37 °C in plates with sterilized brain heart infusion (BHI) broth (Sigma-Aldrich, USA) media mixed with bacteriological agar (Sigma-Aldrich, USA) using the streak plate method. After 18 h, BHI broth was inoculated to 0.5 on the McFarland scale and diluted to approximately 10^5 CFU/mL. To achieve a final stock concentration of 1024 μg/mL, the peptidomimetics were dissolved in sterile water, and 5–10% of absolute ethanol or dimethyl sulfoxide (DMSO) was added. The antibacterial activities were determined by using the standard broth microdilution method of the National Committee for Clinical Laboratory Standards. The process involved adding serially diluted peptidomimetics to consecutive wells of a 96-well microtiter plate (Brand, Germany) holding media with microorganisms. The inoculated plates treated with peptides were then placed in an incubator at 37 °C for 18 h. The MIC value was determined as the lowest concentration of peptidomimetic at which there was no obvious growth (equal or more than 90% of the untreated sample). […] The lowest concentration yielding growth in no more than 3 colonies, corresponding to at least a 99.9% kill rate, was taken as MBC. Each biological replicate included control wells with the addition of water, DMSO, and ethanol as respective solvent controls. All experiments were conducted with consistent adherence to growth and sterility controls and were performed at least in technical triplicate with three biological repeats.

[1] = system: immortalized human keratinocytes (HaCaT); assay: LDH cytotoxicity test, keratinocytes; format: cell-based; details: 48 h
Method: (§2) In our study, we used two distinct cell types: immortalized human HaCaT keratinocytes (DKFZ, Heidelberg, Germany) and a human dermal fibroblast cell line (46BR.1N). […] Cultures were maintained in a humidified atmosphere with 5% CO2 at 37 °C in 25 cm^2 culture flasks with the medium replenished every 2 days. The condition of the cells was monitored using optical microscopy.
(§3) Cell death in immortalized human keratinocytes (HaCaT) and fibroblasts (46BR.1N) was measured by quantifying the lactate dehydrogenase (LDH) activity using a commercial kit (Roche, Switzerland). Cells were seeded in 96-well plates at a density of 5000 cells per well in DMEM high glucose medium supplemented with 10% FBS. After 24 h of incubation, the medium was replaced with serum-free medium containing various concentrations of peptidomimetics (50, 100, and 150 μg/mL). After 48 h, supernatants were collected for LDH analysis. Plate readings were taken spectrophotometrically using a 450 nm wavelength. Cell death measurements were normalized to an untreated control (0%), with 1% Triton X-100 detergent used as a positive control to induce maximum LDH release, indicating maximal cytotoxicity. Statistical significance was determined with a Mann–Whitney U test with a statistical significance p ≤ 0.05. Analysis was performed with Statistica software (Krakow, Poland) and graphs were prepared in GraphPad Prism (Boston, USA).

S. pyogenes ATCC 19615 = assay: MIC/MBC broth microdilution, S. pyogenes; format: cell-based, Streptococcus pyogenes; details: S. pyogenes
Method: as §1

[2] = system: immortalized human HaCaT keratinocytes; assay: XTT cell proliferation assay, keratinocytes; format: cell-based
Method: (§4) In our study, we used two distinct cell types: immortalized human HaCaT keratinocytes (DKFZ, Heidelberg, Germany) and a human dermal fibroblast cell line (46BR.1N). […] Cultures were maintained in a humidified atmosphere with 5% CO2 at 37 °C in 25 cm^2 culture flasks with the medium replenished every 2 days. The condition of the cells was monitored using optical microscopy. […] After 24 h of incubation, the medium was replaced with serum-free HG-DMEM containing appropriate concentrations of peptidomimetics. All solutions used in the experiments were prepared with double-distilled water or with the addition of ethanol under sterile conditions to ensure compatibility with the conditions of the bacteriological assay. For 72 h of incubation, half of the medium was replaced with fresh medium after 48 h, and cells were stimulated with peptides for a second time. The XTT cell proliferation assay was then performed according to the manufacturer’s instructions (Roche, Switzerland). Cells were treated with the peptides for either 48 or 72 h, followed by the addition of XTT reagent, and the plates were then incubated at 37 °C in a 5% CO2 environment for 4 h. Plate readings were taken using a standard plate reader at a wavelength of 490 nm (OD = 490 nm). […] Statistical significance was determined with a Mann–Whitney U test with statistical significance p ≤ 0.05. Analysis was performed with Statistica software, and graphs were prepared in GraphPad Prism.

S. cohnii c.i. = assay: MIC/MBC broth microdilution, S. cohnii; format: cell-based, Staphylococcus cohnii
Method: as §1

S. schleiferi c.i. = assay: MIC/MBC broth microdilution, S. schleiferi; format: cell-based, Staphylococcus schleiferi
Method: as §1

S. aureus ATCC 43300 = assay: MIC/MBC broth microdilution, S. aureus; format: cell-based, Staphylococcus aureus; details: for MBC / MIC: S. aureus
S. agalactiae ATCC 27956 = assay: MIC/MBC broth microdilution, S. agalactiae; format: cell-based, Streptococcus agalactiae; details: S. agalactiae
Method: as §1

[3] = system: human dermal fibroblast cell line (46BR.1N); assay: XTT cell proliferation assay, fibroblasts; format: cell-based
Method: as §4

P. aeruginosa ATCC 10145 = assay: MIC/MBC broth microdilution, P. aeruginosa; format: cell-based
Method: as §1

S. intemrdius c.i. = assay: MIC/MBC broth microdilution, S. intermedius; format: cell-based, Staphylococcus intermedius
Method: as §1

fibroblasts (46BR.1N) = assay: LDH cytotoxicity test, fibroblasts; format: cell-based; details: 48 h
Method: as §2, §3

[4] = system: K. pneumoniae ATCC 700603; assay: MIC/MBC broth microdilution, K. pneumoniae; format: cell-based
Method: as §1

S. mutans c.i. = assay: MIC/MBC broth microdilution, S. mutans; format: cell-based, Streptococcus mutans
Method: as §1

E. coli ATCC 25922 = assay: MIC/MBC broth microdilution, E. coli; format: cell-based, Escherichia coli
Method: as §1

E. faecalis c.i. = assay: MIC/MBC broth microdilution, E. faecalis; format: cell-based, Enterococcus faecalis
Method: as §1

[5] = XTT, 48 and 72 h, 0.01–150 μg/mL
[6] = up to 150 μg/mL, A-193 and A-179 after 48 h

CC(C)C[C@H](NC(=O)[C@H](CCCNC(=N)N)NC(=O)OCc1ccccc1)C(=O)N[C@H](CNC(=O)C(=Cc1ccccc1)c1ccccc1)C(C)C [Compound A-164]
MIC (P. vulgaris ATCC 6896; H2O): > 512 µg/mL
MIC (P. vulgaris ATCC 6896; water additive DMSO): > 512 µg/mL
MIC (P. vulgaris ATCC 6896; water additive EtOH): > 512 µg/mL
cytotoxicity (LDH), in words ([1]; 50-150 μg/mL): cytotoxic effects across all of the tested concentrations
concentration at which cytotoxic effect starts ([1]; LDH): 50 µg/mL
MBC (S. pyogenes ATCC 19615; H2O): 16 µg/mL (≈ 22.5 µM)
MIC (S. pyogenes ATCC 19615; H2O): 8 µg/mL (≈ 11.2 µM)
MBC (S. pyogenes ATCC 19615; water additive DMSO): 16 µg/mL (≈ 22.5 µM)
MIC (S. pyogenes ATCC 19615; water additive DMSO): 8 µg/mL (≈ 11.2 µM)
MBC (S. pyogenes ATCC 19615; water additive EtOH): 8 µg/mL (≈ 11.2 µM)
MIC (S. pyogenes ATCC 19615; water additive EtOH): 4 µg/mL (≈ 5.62 µM)
proliferation relative to control at 50 μg/mL ([2]; XTT, 50 μg/mL): 50%
effect on proliferation, in words [2, 5]: negative impact
antiproliferative effect (decrease vs control) [2, 6]: up to 50%
MBC (S. cohnii c.i.; water additive DMSO): 32 µg/mL (≈ 44.9 µM)
MIC (S. cohnii c.i.; water additive DMSO): 16 µg/mL (≈ 22.5 µM)
MIC (S. cohnii c.i.; water additive EtOH): 32 µg/mL (≈ 44.9 µM)
MBC (S. schleiferi c.i.; H2O): 16 µg/mL (≈ 22.5 µM)
MIC (S. schleiferi c.i.; H2O): 8 µg/mL (≈ 11.2 µM)
MBC (S. schleiferi c.i.; water additive DMSO): 32 µg/mL (≈ 44.9 µM)
MIC (S. schleiferi c.i.; water additive DMSO): 16 µg/mL (≈ 22.5 µM)
MBC (S. schleiferi c.i.; water additive EtOH): 8 µg/mL (≈ 11.2 µM)
MIC (S. schleiferi c.i.; water additive EtOH): 4 µg/mL (≈ 5.62 µM)
MBC (S. aureus ATCC 43300; H2O): 16 µg/mL (≈ 22.5 µM)
MIC (S. aureus ATCC 43300; H2O): 8 µg/mL (≈ 11.2 µM)
MBC (S. aureus ATCC 43300; water additive DMSO): 16 µg/mL (≈ 22.5 µM)
MIC (S. aureus ATCC 43300; water additive DMSO): 8 µg/mL (≈ 11.2 µM)
MBC (S. aureus ATCC 43300; water additive EtOH): 16 µg/mL (≈ 22.5 µM)
MIC (S. aureus ATCC 43300; water additive EtOH): 8 µg/mL (≈ 11.2 µM)
MIC value for S. aureus (S. aureus ATCC 43300; additive not stated): 8 µg/mL
MBC (S. agalactiae ATCC 27956; H2O): 16 µg/mL (≈ 22.5 µM)
MIC (S. agalactiae ATCC 27956; H2O): 8 µg/mL (≈ 11.2 µM)
MBC (S. agalactiae ATCC 27956; water additive DMSO): 32 µg/mL (≈ 44.9 µM)
MIC (S. agalactiae ATCC 27956; water additive DMSO): 16 µg/mL (≈ 22.5 µM)
MBC (S. agalactiae ATCC 27956; water additive EtOH): 8 µg/mL (≈ 11.2 µM)
MIC (S. agalactiae ATCC 27956; water additive EtOH): 4 µg/mL (≈ 5.62 µM)
viability ([3]; 48 h, 50, 100 and 150 μg/mL): over 20%
proliferation relative to control at 50 μg/mL ([3]; XTT, 50 μg/mL): 50%
effect on proliferation, in words [3, 5]: negative impact
antiproliferative effect (decrease vs control) [3, 6]: up to 50%
MIC (P. aeruginosa ATCC 10145; H2O): > 512 µg/mL
MIC (P. aeruginosa ATCC 10145; water additive DMSO): > 512 µg/mL
MIC (P. aeruginosa ATCC 10145; water additive EtOH): > 512 µg/mL
MBC (S. intemrdius c.i.; H2O): 32 µg/mL (≈ 44.9 µM)
MIC (S. intemrdius c.i.; H2O): 16 µg/mL (≈ 22.5 µM)
MBC (S. intemrdius c.i.; water additive DMSO): 8 µg/mL (≈ 11.2 µM)
MIC (S. intemrdius c.i.; water additive DMSO): 4 µg/mL (≈ 5.62 µM)
MBC (S. intemrdius c.i.; water additive EtOH): 16 µg/mL (≈ 22.5 µM)
MIC (S. intemrdius c.i.; water additive EtOH): 8 µg/mL (≈ 11.2 µM)
cytotoxicity (LDH), in words (fibroblasts (46BR.1N); 50-150 μg/mL): cytotoxic effects across all of the tested concentrations
concentration at which cytotoxic effect starts (fibroblasts (46BR.1N); LDH): 50 µg/mL
MIC ([4]; H2O): > 512 µg/mL
MIC ([4]; water additive DMSO): > 512 µg/mL
MIC ([4]; water additive EtOH): > 512 µg/mL
MIC (S. mutans c.i.; H2O): > 512 µg/mL
MIC (S. mutans c.i.; water additive DMSO): > 512 µg/mL
MIC (S. mutans c.i.; water additive EtOH): > 512 µg/mL
MIC (E. coli ATCC 25922; H2O): > 512 µg/mL
MIC (E. coli ATCC 25922; water additive DMSO): > 512 µg/mL
MIC (E. coli ATCC 25922; water additive EtOH): > 512 µg/mL
MIC (E. faecalis c.i.; H2O): 32 µg/mL (≈ 44.9 µM)
MBC (E. faecalis c.i.; water additive DMSO): 32 µg/mL (≈ 44.9 µM)
MIC (E. faecalis c.i.; water additive DMSO): 16 µg/mL (≈ 22.5 µM)
MIC (E. faecalis c.i.; water additive EtOH): 32 µg/mL (≈ 44.9 µM)
